Source: patent publication US6908733B2, “Diagnosis and treatment of human kidney diseases” (Shiva Biomedical, LLC, priority 1999, dated 2005)
“And” between values parts separate entries of the source, which are not always exact repeats. Identical values can stand only once. “Also recorded” adds a separate entry of the source.

Columns and labels:
[1] = test system: patients with kidney disease; test: Serum creatinine in patients with kidney disease before and after treatment with an iron chelator; assay type: in vivo, human
Procedure: Creatinine clearance was calculated by the standard formula Cr=Ucr V/PCr where Cr=clearance of creatinine (ml/min); Ucr=urine creatinine (mg/dl), V=volume of urine, and PCr=plasma creatinine (mg/dl).
(§1) The diagnosis of the kidney disease was made by performing a kidney biopsy and included patients with membranoproliferative glomerulonephritis, membranous nephropathy, focal segmental sclerosis, IgA nephropathy, and diabetes as described above.
(§2) Patients with kidney disease who had abnormally high urinary protein were treated with the iron chelator deferiprone (1,2-dimethyl-3-hydroxypyrid-4-one) (L1). Deferiprone was synthesized as previously described capsule (Kontoghiorghes A. J., et al., Inorganica Chimica Acta 136:L11-L12 (1987), the teachings of which are hereby incorporated by reference in it entirety) and formulated into capsules containing 500 mg of deferiprone per capsule.
(§3) Urinary protein and serum creatinine was measured as described above before the administration of deferiprone. Patients were treated by oral ingestion of deferiprone in a range between about 30 mg and about 75 mg deferiprone per kilogram body weight per day 3 times a day. Urinary protein and serum creatinine was obtained 2-6 months after the administration of the iron chelator. […] Total urinary protein and serum creatinine measured before (e.g., pretreatment) and after the administration of deferiprone were compared using a paired t-test and p-value of <0.05 was considered significant.

[2] = test system: patients with kidney disease; test: 24-hr urinary protein in patients with kidney disease before and after treatment with an iron chelator; assay type: in vivo, human
Procedure: Kidney disease was detected in patients by the presence of an abnormal amount of protein in the urine and/or an abnormal renal function. An abnormal amount of protein in urine is an amount of total protein greater than about 0.15 g/24 h measured by an adaptation of pyrogallol red-molydate method described by Fujita, Y., et al., Bunseki Kgaku 32:379-386 (1983), the teachings of which are hereby incorporated by reference in their entirety. Many patients, as part of their routine work up, had received kidney biopsies providing diagnosis of the nature of the kidney disease.
as §1, §2, §3

[3] = patients with kidney disease, paired t-test, p<0.05 significant
[4] = individual patients, before vs after 2-6 months oral deferiprone about 30-75 mg/kg per day
[5] = mean of N=14 patients, p < 0.001

SMILES: Cc1c(O)c(=O)ccn1C [deferiprone, 1,2-dimethyl-3-hydroxypyrid-4-one]
- effect on serum creatinine [1, 3]: significantly decreased; also recorded: decrease
- Creatinine After ([1]; serum, individual patients, 2-6 months after oral deferiprone about 30-75 mg/kg per day): 0.9 mg/dl (3×) and 1.3 mg/dl and 0.6 mg/dl and 0.5 mg/dl (2×) and 1.4 mg/dl and 0.7 mg/dl and 1.5 mg/dl and 0.8 mg/dl
- Creatinine After, Mean ([1]; serum, mean of N=11 patients, before 1.10): 0.90 mg/dL
- 24-Hr Urinary Protein Reduction % [2, 4]: 49% and 83% and 38% and 25% and 62% and 99% and 34% and 44% and 80% and 15% and 9% and 2% and 54% and 78%
- 24-Hr Urinary Protein Reduction Grams [2, 4]: 1.9 Grams and 1 Grams and 2.5 Grams and 0.7 Grams (2×) and 2.6 Grams and 5.95 Grams and 2 Grams and 2.1 Grams and 0.43 Grams and 0.5 Grams and 0.1 Grams and 1.4 Grams and 2.2 Grams
- 24-Hr Urinary Protein After ([2]; individual patients, oral deferiprone about 30-75 mg/kg per day, 3 times a day, measured 2-6 months after administration): 1.5 grams/24 hrs and 0.2 grams/24 hrs and 4 grams/24 hrs and 1.6 grams/24 hrs (2×) and 0.05 grams/24 hrs and 2.8 grams/24 hrs and 2.5 grams/24 hrs and 0.1 grams/24 hrs and 3.8 grams/24 hrs and 4.8 grams/24 hrs and 4.6 grams/24 hrs and 1.2 grams/24 hrs and 0.6 grams/24 hrs
- 24-Hr Urinary Protein After, Mean ([2]; mean of N=14 patients, before 3.91, 2-6 months oral deferiprone about 30-75 mg/kg per day, p < 0.001): 2.13 grams/24 hrs
- 24-Hr Urinary Protein Reduction %, Mean [2, 5]: 48%
- 24-Hr Urinary Protein Reduction Grams, Mean [2, 5]: 1.70 Grams
- effect on total urinary protein [2, 3]: significantly decreased; also recorded: decrease
